# Source: ChEMBL document CHEMBL1131237 (J Med Chem, 1998)
# Values joined by “and” are separate entries in the source; they are usually repeats but may differ in a detail not shown here. Equal values may be shown once.
# Key:
# [1] = target: Sodium-dependent dopamine transporter (Rattus norvegicus) (UniProt P23977)
# [2] = target: T1, Sodium-dependent dopamine transporter (Rattus norvegicus, UniProt P23977); assay: Ability to displace [3H]WIN-35428 binding to dopamine transporter from rat striatal membranes
# [3] = target: Sodium-dependent dopamine transporter (Rattus norvegicus) (UniProt P23977); assay: Hill coefficient was determined
# [4] = target: T1, Sodium-dependent dopamine transporter; assay: Inhibition of high-affinity uptake of [3H]dopamine at dopamine transporter into rat striatal nerve endings (synaptosomes); format: subcellular, Brain
# Sequence of Sodium-dependent dopamine transporter (Rattus norvegicus) (P23977 whole entry): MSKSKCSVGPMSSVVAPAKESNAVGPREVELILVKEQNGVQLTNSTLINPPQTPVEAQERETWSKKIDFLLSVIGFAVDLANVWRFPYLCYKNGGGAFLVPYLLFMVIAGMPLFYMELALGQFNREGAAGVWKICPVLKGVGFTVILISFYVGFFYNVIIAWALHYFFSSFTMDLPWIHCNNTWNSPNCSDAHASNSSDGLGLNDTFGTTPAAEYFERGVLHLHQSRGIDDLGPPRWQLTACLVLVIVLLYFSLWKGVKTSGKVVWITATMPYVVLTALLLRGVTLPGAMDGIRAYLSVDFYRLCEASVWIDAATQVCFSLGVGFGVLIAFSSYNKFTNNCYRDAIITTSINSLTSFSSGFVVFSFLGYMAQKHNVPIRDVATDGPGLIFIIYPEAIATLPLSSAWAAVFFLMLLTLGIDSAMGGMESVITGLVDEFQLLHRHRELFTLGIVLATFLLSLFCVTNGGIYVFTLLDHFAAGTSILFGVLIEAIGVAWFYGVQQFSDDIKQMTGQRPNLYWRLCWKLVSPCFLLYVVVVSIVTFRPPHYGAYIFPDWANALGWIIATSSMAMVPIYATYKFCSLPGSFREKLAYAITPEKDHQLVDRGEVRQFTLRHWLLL
# T1 sequence (P23977 whole entry): as above
SMILES,Hill coefficient [1],IC50 [2],Hill coefficient [3],IC50 [4]
"CN1CC[C@H](c2ccc(Cl)cc2)C(CO)C1 (single isomer, unassigned; (-)-5) [listing 1 of 2 here]",0.56 and 1.04,–,–,–
"COC(=O)C1CN(C)CC[C@@H]1c1ccc(Cl)cc1 (single isomer, unassigned)",0.78 and 0.97,–,–,–
COC(=O)C1CN(C)CC[C@@H]1c1ccccc1 (stereo partly specified),–,769 nM,1.02,–
"COC(=O)[C@H]1[C@@H](OC(=O)c2ccccc2)CC2CC[C@H]1N2C (single isomer, unassigned)",0.87 and 1.06,–,–,–
"CN1CC[C@H](c2ccc(Cl)cc2)C(CO)C1 (single isomer, unassigned; (+)-13) [listing 1 of 2 here]",–,240 nM,–,683 nM
CC(=O)OC[C@@H]1CN(C)CC[C@@H]1c1ccc(Cl)cc1,0.66 and 1.03,–,–,–
"CN1CC[C@H](c2ccc(Cl)cc2)C(CO)C1 (single isomer, unassigned; (-)-5) [listing 2 of 2 here]",–,75.3 nM,–,49 nM
"COC(=O)C1CN(C)CC[C@H]1c1ccc(Cl)cc1 (single isomer, unassigned)",–,–,0.81 and 0.95,5090 nM
COC(=O)[C@@H]1CN(C)CC[C@@H]1c1ccc(Cl)cc1 (racemic),0.91 and 1.04,–,–,–
COC(=O)[C@H]1CN(C)CC[C@@H]1c1ccc(Cl)cc1 (racemic),0.91,197 nM,–,–
COC(=O)[C@@H]1CN(C)CC[C@@H]1c1ccc(Cl)cc1,0.78 and 0.94,–,–,–
CCC[C@@H]1CN(C)CC[C@@H]1c1ccc(Cl)cc1,–,–,0.64 and 1.04,–
CC(=O)OCC1CN(C)CC[C@H]1c1ccc(Cl)cc1 (stereo partly specified),0.89 and 1.07,928 nM,–,2020 nM
CN1CC[C@@H](c2ccc(Cl)cc2)C(CO)C1 (stereo partly specified),0.66,442 nM,–,–
"CC(=O)OCC1CN(C)CC[C@@H]1c1ccc(Cl)cc1 (single isomer, unassigned)",0.76,461 nM,–,–
COC(=O)[C@H]1CN(C)CC[C@H]1c1ccc(Cl)cc1,–,653 nM,0.96 and 1.08,195 nM
"CCCC1CN(C)CC[C@@H]1c1ccc(Cl)cc1 (single isomer, unassigned)",–,17.2 nM,0.85 and 1.03,23.2 nM
"CN1CC[C@H](c2ccc(Cl)cc2)C(CO)C1 (single isomer, unassigned; (+)-13) [listing 2 of 2 here]",0.85 and 1.09,–,–,–
